Reference: patent US12338263B2, “Antibacterial aminoglycoside derivatives” (priority 2019, dated 2025)

System: auditory function in guinea pigs
Experiment: Auditory safety: compound action potential (CAP) in guinea pigs
Format: in vivo
Settings: guinea pig, in vivo, sc, 100 mg/kg
Description: Healthy adult guinea pigs (150-250 g) were employed as the research objects, and were randomly divided into saline control group, gentamicin group, compound Plazomicin group and Compound 1 group, with 8 animals in each group. Subcutaneous administration is used, and the following assays were carried out during and after the administration for 14 consecutive days: • 1. To analyze the effects of different drugs on the auditory function of guinea pigs, the compound action potential (CAP) of animals was recorded on the 14th day (29th day, i.e., 4 weeks) after administration. The results obtained were analyzed and the changes of the threshold shift, amplitude, latency and other indicators among different treatment groups were compared. • 2. After the different groups of animals were processed and the auditory function data thereof were collected, the cochlea of the animals was taken out for fixation and staining. Surface preparation of basilar membrane of the cochlea on one side was performed to count the loss of hair cells so as to make a cochlea map, and the cochlea on the other side was decalcified and frozen sectioned. The density of spiral ganglion neurons was counted and compared among groups. Research Results: 1. Administration Method and Treatment
Gentamicin from Dalian Meilun Biotechnology Co., Ltd., and Plazomicin and Compound 1 from WuXi AppTec (WuHan) Co., Ltd. are used, the solution of which were prepared just before use each time by using saline for dissolution to the concentration of 50 mg/mL, and the injection dose was 100 mg/kg body weight. Method: subcutaneous injection, and confirmation of no liquid leakage after each injection.
The compound action potential (CAP) was tested and recorded when clicks and different frequencies of pure tones (1 KHz-32 kHz) were applied to each group of animals, and variations in amplitude and latency were mainly compared when clicks and medium and high frequency pure tones (16, 32 kHz) were applied. The magnitude of amplitude reflects the responsiveness of hair cells and auditory nerves. The larger the amplitude and the greater the slope of the I/O curve were, the better the responsiveness and the better the function were. In addition, the cochlea from apical turn to basal turn was responsive to sounds from low-frequency to high-frequency respectively, which is the frequency correspondence of the cochlear basilar membrane. The functional changes to different frequencies correspond to the different structural and functional changes of the cochlea fromapical turn to basal turn. The length of latency was also related to the function of the hair cells and auditory nerve response. Generally speaking, increasing of the threshold value when the cochlea was injured would inevitably lead to the extension of latency. […] In other words, the extension of latency reflected the decrease of response function. The previous ototoxicity of aminoglycoside antibiotics was mainly concentrated in the high-frequency area. In this study, the gentamicin group was consistent with previous results, as summarized below.

SMILES: CN[C@@H]1[C@@H](O)[C@@H](O[C@@H]2[C@@H](O)[C@H](O[C@H]3OC(CNCCOCCONC(=N)N)=CC[C@H]3N)[C@@H](N)C[C@H]2NC(=O)[C@@H](O)CCN)OC[C@]1(C)O [Compound 1]
- CAP amplitude under click: consistent with the Control group
- hearing damage (CAP amplitude) at 16 kHz: no different from the Control group
- hearing damage to experimental animals (CAP amplitude, overall): significantly lower than that of Gentamicin and Plazomicin
- CAP amplitude at 16 kHz (29 day): 381.646±20.895 uv
- CAP amplitude at 32 kHz (29 day): 79.420±7.000 uv
- hearing damage (CAP amplitude) at 32 kHz (29 day): 34.7%
- reduction of hearing damage at 32 kHz compared to Gentamicin (29 day): 39.6%
- reduction of hearing damage at 32 kHz compared to Plazomicin (29 day): 13.5%
